This note sets out measurements from patent US8846669B2, “Oxazolidinone derivative and medical composition containing same” (Legochem Biosciences, Inc., priority 2011, dated 2014).

Assay in all cases: In vitro antibacterial activity, broth microdilution MIC90
Common to all, as to format: cell-based
(In general: In broth dilution the organism is exposed to a series of concentrations in liquid medium.)

Experiment [1] concerns Linezolid and Vancomycin Resistant Enterococcus faecium (strain 11). As to conditions: strain 11, E. faecium VanA LR. The gist of the method:
(§1)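 Antibacterial testing used the CLSI M7-A5 dilution method for aerobic bacteria across twelve strains, including resistant staphylococcal and enterococcal isolates. Final drug levels of 0.063 μg/mL up to 128 μg/mL were tested; linezolid was included for comparison.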

A further experiment concerns Staphylococcus aureus. The settings on record: strain 1, S. aureus. The procedure, abridged:
as §1

In experiment [2] the test system is Methicillin Resistant Staphylococcus aureus. As to conditions: strain 2, S. aureus MR. The gist of the method:
as §1

For the next experiment, the system named is Moraxella catarrhalis. As to conditions: strain 12, M. catarrhalis. The procedure, abridged:
as §1

Experiment [3] concerns Vancomycin Resistant Enterococcus faecalis. The settings on record: strain 6, E. faecalis VanA. The gist of the method: as §1
The subject of experiment [4] is Vancomycin Resistant Enterococcus faecium. As to conditions: strain 9, E. faecium VanA. The gist of the method: as §1
For experiment [5], the system named is Methicillin Resistant Staphylococcus epidermidis. The settings on record: strain 4, S. epidermidis MR. The gist of the method: as §1
Another experiment relates to Enterococcus faecalis. The settings on record: strain 5, E. faecalis. The procedure, abridged: as §1
The subject of the next experiment is Enterococcus faecium. As to conditions: strain 8, E. faecium. The gist of the method:
as §1

For experiment [6], the system named is Staphylococcus epidermidis. The settings on record: strain 3, S. epidermidis. The gist of the method: as §1
Experiment [7] has as its system Linezolid and Vancomycin Resistant Enterococcus faecium (strain 10). The settings on record: strain 10, E. faecium VanA LR. The gist of the method: as §1
Experiment [8] has as its system Linezolid and Vancomycin Resistant Enterococcus faecalis. As to conditions: strain 7, E. faecalis VanA LR. The gist of the method:
as §1

[9] abbreviates: Enterococcus faecium, read-out: MIC90.
The mark [10] stands for this setting: Staphylococcus aureus, read-out: MIC90.
Setting [11] is: Enterococcus faecalis, read-out: MIC90.
Setting [12] is: Staphylococcus epidermidis, read-out: MIC90.

Each structure is given as a SMILES string. Values after ≈ are worked out from the molar mass of the structure shown. Read-outs that look alike come from different tables or passages of the source.

The MIC90 is an inhibitory concentration at the 90% level, which refers to growth in some studies and to a panel of isolates in others. `COC(=O)NC[C@H]1CN(c2ccc(-c3ccc(C4=NOCCN4C)nc3)c(F)c2)C(=O)O1` [Compound 70]: the MIC90 in experiment [1] (setting [9]) turned out to be 8 µg/mL (≈ 18 µM); in the experiment with Staphylococcus aureus (setting [10]), 1 µg/mL (≈ 2.26 µM); in experiment [2] (setting [10]) it was 2 µg/mL (≈ 4.51 µM); in the experiment on Moraxella catarrhalis (Moraxella catarrhalis, read-out: MIC90) it was 4 µg/mL (≈ 9.02 µM); in experiment [3] (setting [11]), 2 µg/mL (≈ 4.51 µM); in experiment [4] (setting [9]), 1 µg/mL (≈ 2.26 µM). Also, the MIC90 in experiment [5] (setting [12]) amounted to 4 µg/mL (≈ 9.02 µM); with Enterococcus faecalis (setting [11]), 2 µg/mL (≈ 4.51 µM); in the experiment on Enterococcus faecium (setting [9]), 1 µg/mL (≈ 2.26 µM); in experiment [6] (setting [12]), 1 µg/mL (≈ 2.26 µM); in experiment [7] (setting [9]), 8 µg/mL (≈ 18 µM); in experiment [8] (setting [11]), 8 µg/mL (≈ 18 µM).

On to `O=C(C(O)CO)N1CCN(c2ccc(-c3ccc(N4C[C@H](CNc5ccon5)OC4=O)cc3F)cn2)C=N1` (stereo partly drawn) [Compound 43], for which the MIC90 in [1] stood at 4 µg/mL (≈ 7.61 µM); against Staphylococcus aureus, 0.25 µg/mL (≈ 0.476 µM); in experiment [2] it was 0.5 µg/mL (≈ 0.951 µM); against Moraxella catarrhalis, 2 µg/mL (≈ 3.81 µM); in experiment [3], 1 µg/mL (≈ 1.9 µM); in experiment [4], 0.5 µg/mL (≈ 0.951 µM). The MIC90 in experiment [5] was determined as 2 µg/mL (≈ 3.81 µM); against Enterococcus faecalis, 0.5 µg/mL (≈ 0.951 µM); in the experiment with Enterococcus faecium it was 0.25 µg/mL (≈ 0.476 µM); in experiment [6], 1 µg/mL (≈ 1.9 µM); in experiment [7], 4 µg/mL (≈ 7.61 µM); in [8], 2 µg/mL (≈ 3.81 µM).
